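Dose response: 5 concentrations. Exposure: 48 h. Format: 96-well plates. Endpoint: linear interpolation; highest concentration if not reached. GI50 marks 50% less growth. TGI is the concentration that stops growth completely.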 Bounds are passed on as bounds.

Results on 17 compounds are retold here after PubChem BioAssay (NCI).

Among the test systems are EKVX NSCLC; HCT-15 colon; IGROV1 ovarian; KM12 colon; MDA-MB-231 breast; OVCAR-5 ovarian; SF-268 CNS; SK-OV-3 ovarian.
Test in all cases: NCI anticancer screen, dose series, 48 h

For the compound `C=CCN(C(=O)OC(C)(C)C)[C@H](C)C(=O)N[C@@H](C)C(=O)OC`, the TGI in the assay on EKVX NSCLC, with HCT-15 colon, in the assay with IGROV1 ovarian, in the assay on KM12 colon, in the assay with MDA-MB-231 breast and in the assay on OVCAR-5 ovarian was over 100 µM in each case. Also, the TGI with SF-268 CNS and in the assay on SK-OV-3 ovarian was over 100 µM in each case.

For the compound `COc1ccc(N2C(=O)C3c4[nH]c5ccc(Br)cc5c4C4CCC(C(C)(C)C)CC4C3C2=O)cc1` (stereo not given), the TGI in the assay on EKVX NSCLC, with HCT-15 colon, in the assay on IGROV1 ovarian, in the assay on KM12 colon, with MDA-MB-231 breast and in the assay with OVCAR-5 ovarian was over 100 µM each time. The TGI in the assay on SF-268 CNS and in the assay with SK-OV-3 ovarian was over 100 µM in each case.

For the compound `CC1SCc2nc3ccccc3n21` (stereo not given), the TGI with EKVX NSCLC, in the assay with HCT-15 colon, with IGROV1 ovarian, in the assay with KM12 colon, in the assay with MDA-MB-231 breast and in the assay with OVCAR-5 ovarian was over 100 µM throughout. Moreover, the TGI in the assay on SF-268 CNS and with SK-OV-3 ovarian was over 100 µM in each case.

For the compound `CCOC(=O)C(Cc1ccc(OC(=O)c2ccc(OC)cc2)cc1)NC(=O)C(F)(F)F` (stereo not given), the TGI in the assay on EKVX NSCLC, with HCT-15 colon, in the assay with IGROV1 ovarian, in the assay on KM12 colon, in the assay with MDA-MB-231 breast and in the assay with OVCAR-5 ovarian was over 100 µM each time. For the same compound, the TGI with SF-268 CNS and in the assay on SK-OV-3 ovarian was over 100 µM each time.

As to `CCCCCCCCCCCCCCCCCCNC(=S)/N=C\C1=C(O)c2ccccc2C1=O`, the TGI worked out at 28 µM in the assay on EKVX NSCLC; 26.7 µM in the assay with HCT-15 colon; 5.62 µM with IGROV1 ovarian; 22.7 µM with KM12 colon; 24.6 µM with MDA-MB-231 breast; 26.9 µM with OVCAR-5 ovarian. The TGI in the assay on SF-268 CNS was determined as 22.1 µM; in the assay on SK-OV-3 ovarian it was 33.6 µM.

As for `COC(=O)C1(C#N)C(C)(C)N=C(c2ccccc2)C12CCCCC2` (stereo not given), the TGI in the assay with EKVX NSCLC, with HCT-15 colon, in the assay with IGROV1 ovarian, in the assay with KM12 colon, in the assay on MDA-MB-231 breast and with OVCAR-5 ovarian was over 100 µM throughout. For the same compound, the TGI in the assay with SF-268 CNS and in the assay on SK-OV-3 ovarian was over 100 µM each time.

As for `OC(c1ccc(C(F)(F)F)cc1)C(F)(F)c1nc2ccccc2o1` (stereo not given), the TGI in the assay on EKVX NSCLC, in the assay on HCT-15 colon, in the assay with IGROV1 ovarian, in the assay on KM12 colon, with MDA-MB-231 breast and in the assay with SF-268 CNS was over 100 µM throughout. For the same compound, the TGI with SK-OV-3 ovarian was over 100 µM.

Regarding `O=C(Nc1ccc(-n2ccc3c(NC(=O)c4ccccc4)ncnc32)cc1)Nc1ccc(Cl)c(Cl)c1`, the GI50 was 7.24 µM in the assay on EKVX NSCLC; 1.74 µM with HCT-15 colon; 7.16 µM in the assay on IGROV1 ovarian; 1.8 µM in the assay on KM12 colon; 4.11 µM in the assay with MDA-MB-231 breast; 5.62 µM in the assay with OVCAR-5 ovarian. Also, the GI50 with SF-268 CNS is 4.22 µM. In addition, the TGI was found to be 21 µM in the assay on EKVX NSCLC; 6.97 µM in the assay on HCT-15 colon; 18.2 µM in the assay with IGROV1 ovarian; 6.67 µM in the assay on KM12 colon; 11 µM in the assay with MDA-MB-231 breast; 13.2 µM in the assay on OVCAR-5 ovarian. For the same compound, the TGI with SF-268 CNS was 12.9 µM.

On to `CCOC(=O)C1=CCOc2cc(N(C)C)ccc21`, for which the TGI in the assay on EKVX NSCLC, in the assay on HCT-15 colon, in the assay on IGROV1 ovarian, with KM12 colon, in the assay on MDA-MB-231 breast and in the assay on SF-268 CNS was over 100 µM each time. The same compound showed a TGI with SK-OV-3 ovarian of over 100 µM.

As to `O=[N+]([O-])C(=C(N1CCOCC1)N1CCOCC1)/C(Cl)=C(\Cl)Br`, the TGI turned out to be 37.9 µM with EKVX NSCLC; 28.9 µM in the assay on HCT-15 colon; 76.3 µM with KM12 colon; 31.8 µM with MDA-MB-231 breast; 32.4 µM with OVCAR-5 ovarian; 81.3 µM in the assay on SF-268 CNS.

With `O=C1c2ccccc2-c2nnc3c(c21)-c1ccccc1C3`, the TGI in the assay with EKVX NSCLC, in the assay on HCT-15 colon, with KM12 colon, in the assay on MDA-MB-231 breast, in the assay on OVCAR-5 ovarian and in the assay with SF-268 CNS was over 100 µM each time. This compound also returned a TGI in the assay on SK-OV-3 ovarian of over 100 µM.

For `NC(=O)Cc1nc2c(N)ncnc2n1C1OC(CO)C(O)C1O` (stereo not given), the TGI in the assay on EKVX NSCLC, with HCT-15 colon, in the assay with IGROV1 ovarian, in the assay with KM12 colon, in the assay with MDA-MB-231 breast and in the assay on SF-268 CNS was over 100 µM throughout. This compound displayed a TGI in the assay on SK-OV-3 ovarian of over 100 µM.

As for `O=c1[nH]nc(Cc2c[nH]c3ccccc23)o1`, the TGI in the assay with EKVX NSCLC, in the assay on HCT-15 colon, in the assay with IGROV1 ovarian, with KM12 colon, in the assay on MDA-MB-231 breast and in the assay on OVCAR-5 ovarian was over 100 µM each time. The same compound displayed a TGI in the assay with SF-268 CNS of over 100 µM.

Regarding `Cn1c(=O)c2c(nc3n2CCCC(=O)N3CC(O)CCl)n(C)c1=O` (stereo not given), the TGI in the assay on EKVX NSCLC, in the assay on HCT-15 colon, with IGROV1 ovarian, in the assay with KM12 colon, with OVCAR-5 ovarian and in the assay with SF-268 CNS was over 100 µM each time. In addition, the TGI in the assay with SK-OV-3 ovarian is over 100 µM.

`N#Cc1c(N2CCC(O)C2)c2ccccc2n2c1nc1ccccc12` (stereo not given): the TGI in the assay on EKVX NSCLC was over 100 µM; with HCT-15 colon, over 100 µM; in the assay on IGROV1 ovarian it was over 100 µM; in the assay on KM12 colon, over 100 µM; in the assay with MDA-MB-231 breast, 60.1 µM; in the assay with OVCAR-5 ovarian, over 100 µM. The compound further came in with a TGI in the assay with SF-268 CNS of over 100 µM.

As to `COC1CC(COCc2ccccc2)CC(OC)O1` (stereo not given), the TGI with EKVX NSCLC, in the assay on HCT-15 colon, with KM12 colon, in the assay on OVCAR-5 ovarian, in the assay with SF-268 CNS and in the assay on SK-OV-3 ovarian was over 100 µM each time.

Regarding `COc1cc(-c2cc(=O)c3c(O)c(CC=C(C)C)c(O)cc3o2)ccc1O`, the TGI is 32.5 µM in the assay with EKVX NSCLC; over 50 µM in the assay on HCT-15 colon; over 50 µM in the assay on IGROV1 ovarian; over 50 µM with MDA-MB-231 breast; over 50 µM in the assay with OVCAR-5 ovarian; over 50 µM with SF-268 CNS. Also, in the assay on SK-OV-3 ovarian, the TGI is over 50 µM.
